Test results as given in patent US20100204295A1, “TREATMENT OF ALLERGIC DISEASE WITH IMMUNOMODULATOR COMPOUNDS” (SCICLONE PHARMACEUTICALS, INC., priority 2007, published 2010).

Test system: anti-OvA IgE
Test: Titer of anti-OvA IgE in serum and BAL by solid phase IFA, ovalbumin asthma model
Format: in vivo, mice of the Balb/C line
Details: for Titer IgE BAL, dilution 1:8, % of average of the control group / Titer IgE of serum, dilution 1:640, % of average of the control group: animals 6 to 8 weeks; for Titer IgE BAL, dilution 1:32, % of average of the control group / Titer IgE of serum, dilution 1:400, % of average of the control group: animals 18 to 20 weeks
Excerpt: Female, non-pathogenic mice of the Balb/C line (“Pushchtino” laboratory animal breeders) were kept under conditions of an SPF-vivarium at a constant temperature, 12-hour day/night cycle, and received sterile feed and water ad libitum. In two series of experiments, mice from 6-8 weeks and 18-20 weeks of age were used at the beginning of the experiment, respectively.
The animals were immunized twice at 5-day intervals with an ovalbumin solution (Sigma) in an adjuvant based on ammonium sulfate at a dosage of 8 μg per mouse. SCV-07 was administered intra-abdominally in a volume of 200 μL at a dosage of 0.1 or 1.0 μg/kg in PBS once a day from 6 through 11 days after the first immunization. The control group received physiological saline on the same days. Each group comprised 6 to 10 animals. On the 12th, 16th and 20th days after the first immunization, the animals were then placed in a hermetic box, in which an aerosol of 1% ovalbumin solution (OvA) in PBS was generated with an ultrasonic nebulizer LD-207U (Little Doctor) for 1 minute with continuous mixing of air. The duration of exposure of the animals to the aerosol was 15 minutes. Analysis of the severity of experimental allergic asthma was carried out 24 hours after the last aerosol exposure.
The peripheral blood was collected from the retro-orbital sinus. The titer of anti-OvA IgE in the serum and bronchoalveolar lavage was determined with solid phase IFA according to the following scheme. Rat antibodies to murine IgE labeled with biotin (Caltag) were introduced to a 96-well plate for IFA ((Corning Costar) in the dilution recommended by the manufacturer (100 μL/well), incubated for an hour at room temperature and washed. Serum samples or BAL were then introduced in successive dilutions and incubated at room temperature for an hour and washed. OvA was then added, labeled with horseradish peroxidase, incubated on a shaker for an hour at room temperature, washed and the substrate for peroxidase introduced (OPD, Sigma) and incubated for 15 minutes. The reaction was stopped by adding 1 M H2SO4 and the plates were analyzed on a Victor2 spectrophotometer (Wallac) at a wavelength of 450 nm. For quantitative comparison of the titers of the antigen-specific IgE after subtracting the background, we calculated the average optical density in each dilution for samples of the animal control group, and expressed the optical densities in the samples from all animals in the experiment in corresponding dilution as the percentages of the values obtained.

N[C@H](CCC(=O)N[C@@H](Cc1c[nH]c2ccccc12)C(=O)O)C(=O)O [SCV-07, γ-D-glutamyl-L-tryptophan]
Titer IgE BAL, dilution 1:8, % of average of the control group (0.1 μg/kg): 59 ± 33 % of average of the control group | Titer IgE of serum, dilution 1:640, % of average of the control group (0.1 μg/kg): 86 ± 42 % of average of the control group | Titer IgE BAL, dilution 1:8, % of average of the control group (1 μg/kg): 46 ± 24 % of average of the control group | Titer IgE of serum, dilution 1:640, % of average of the control group (1 μg/kg): 65 ± 26 % of average of the control group | Titer IgE BAL, dilution 1:32, % of average of the control group (0.1 μg/kg): 85 ± 70 % of average of the control group | Titer IgE of serum, dilution 1:400, % of average of the control group (0.1 μg/kg): 92 ± 44 % of average of the control group | Titer IgE BAL, dilution 1:32, % of average of the control group (1 μg/kg): 101 ± 51 % of average of the control group | Titer IgE of serum, dilution 1:400, % of average of the control group (1 μg/kg): 79 ± 46 % of average of the control group
